Measurements taken from patent US9708318B2, “Bicyclic heterocycles as FGFR4 inhibitors” (Incyte Corporation, priority 2015, dated 2017).
Where two headings read alike, the source gives them in different places.

Key:
FGFR4 = FGFR4 (Homo sapiens (Human), UniProt P22455); assay: FGFR Enzymatic Assay (FRET peptide phosphorylation), FGFR4; assay type: biochemical; conditions: for FGFR1/FGFR4 IC50 ratio / FGFR2/FGFR4 IC50 ratio / FGFR3/FGFR4 IC50 ratio: FGFR4 selectivity
Procedure: (§1) The inhibitor potency of the exemplified compounds was measured in an enzyme assay that measures peptide phosphorylation using FRET measurements to detect product formation. Inhibitors were serially diluted in DMSO and a volume of 0.5 μL was transferred to the wells of a 384-well plate.
(§2) The enzymes were purchased from Millipore or Invitrogen.
(§3) GraphPad prism3 was used to analyze the data.

FGFR1 = FGFR1 (Homo sapiens (Human), UniProt P11362); assay: FGFR Enzymatic Assay (FRET peptide phosphorylation), FGFR1
FGFR2 = FGFR2 (Homo sapiens (Human), UniProt P21802); assay: FGFR Enzymatic Assay (FRET peptide phosphorylation), FGFR2; assay type: biochemical
Procedure: as §1, §2, §3

FGFR3 enzyme = FGFR3 enzyme (Homo sapiens (Human), UniProt P22607); assay: FGFR Enzymatic Assay (FRET peptide phosphorylation), FGFR3; assay type: biochemical; conditions: for FGFR1/FGFR3 IC50 ratio / FGFR4/FGFR3 IC50 ratio: FGFR3 selectivity
Procedure: as §1, §3

[1] = FGFR1 IC50 (nM), pre-incubated for 4 hours
[2] = pre-incubated for 4 hours, read-out: FGFR3 IC50
[3] = pre-incubated for 5 to 10 minutes
[4] = read-out: FGFR1 IC50, pre-incubated for 5 to 10 minutes
[5] = read-out: FGFR1 IC50, pre-incubated for 4 hours
[6] = pre-incubated for 5 to 10 minutes, read-out: FGFR3 IC50

FGFR1, sequence (P11362 22-822): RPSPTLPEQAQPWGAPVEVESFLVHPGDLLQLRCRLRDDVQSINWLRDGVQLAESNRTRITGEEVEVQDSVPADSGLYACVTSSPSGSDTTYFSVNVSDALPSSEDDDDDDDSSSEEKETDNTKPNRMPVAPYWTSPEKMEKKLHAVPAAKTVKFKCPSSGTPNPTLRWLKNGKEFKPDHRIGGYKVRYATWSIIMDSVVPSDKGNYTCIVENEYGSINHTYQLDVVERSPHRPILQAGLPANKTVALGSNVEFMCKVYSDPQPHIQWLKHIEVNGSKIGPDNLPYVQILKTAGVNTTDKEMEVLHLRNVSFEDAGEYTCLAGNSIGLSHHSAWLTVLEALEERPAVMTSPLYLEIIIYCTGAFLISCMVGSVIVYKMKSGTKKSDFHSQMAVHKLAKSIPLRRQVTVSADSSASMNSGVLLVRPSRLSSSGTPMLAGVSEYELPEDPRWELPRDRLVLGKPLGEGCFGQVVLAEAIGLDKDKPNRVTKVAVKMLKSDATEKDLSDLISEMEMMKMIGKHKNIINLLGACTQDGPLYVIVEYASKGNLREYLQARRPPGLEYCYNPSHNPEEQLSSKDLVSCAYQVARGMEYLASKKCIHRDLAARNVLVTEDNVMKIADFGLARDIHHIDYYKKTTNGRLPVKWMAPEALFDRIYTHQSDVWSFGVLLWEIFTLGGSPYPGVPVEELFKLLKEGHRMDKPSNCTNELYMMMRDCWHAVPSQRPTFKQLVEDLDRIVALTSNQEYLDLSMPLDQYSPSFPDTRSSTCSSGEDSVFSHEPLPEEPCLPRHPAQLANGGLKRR
FGFR4, sequence (P22455 22-802): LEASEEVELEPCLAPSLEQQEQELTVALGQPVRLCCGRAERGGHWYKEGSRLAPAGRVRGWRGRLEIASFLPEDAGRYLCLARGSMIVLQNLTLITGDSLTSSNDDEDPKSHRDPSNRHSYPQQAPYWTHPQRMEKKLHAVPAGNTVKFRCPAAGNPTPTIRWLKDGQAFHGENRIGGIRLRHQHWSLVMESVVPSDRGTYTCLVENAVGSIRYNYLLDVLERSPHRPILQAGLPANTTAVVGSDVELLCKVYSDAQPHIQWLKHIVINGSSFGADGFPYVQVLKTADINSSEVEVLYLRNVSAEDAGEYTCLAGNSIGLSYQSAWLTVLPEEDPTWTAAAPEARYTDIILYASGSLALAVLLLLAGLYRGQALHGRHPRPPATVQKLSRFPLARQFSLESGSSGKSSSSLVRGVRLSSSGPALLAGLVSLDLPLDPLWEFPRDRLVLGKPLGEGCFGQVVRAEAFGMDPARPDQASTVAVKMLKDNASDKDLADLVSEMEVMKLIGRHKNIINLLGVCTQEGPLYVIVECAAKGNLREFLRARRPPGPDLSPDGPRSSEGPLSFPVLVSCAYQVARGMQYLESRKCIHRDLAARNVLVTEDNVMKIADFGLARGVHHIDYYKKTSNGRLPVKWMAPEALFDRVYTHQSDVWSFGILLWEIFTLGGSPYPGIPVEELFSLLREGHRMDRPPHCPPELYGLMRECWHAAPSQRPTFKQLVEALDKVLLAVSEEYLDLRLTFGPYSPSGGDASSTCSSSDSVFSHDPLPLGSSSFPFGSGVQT
FGFR3 enzyme, sequence (P22607 23-806): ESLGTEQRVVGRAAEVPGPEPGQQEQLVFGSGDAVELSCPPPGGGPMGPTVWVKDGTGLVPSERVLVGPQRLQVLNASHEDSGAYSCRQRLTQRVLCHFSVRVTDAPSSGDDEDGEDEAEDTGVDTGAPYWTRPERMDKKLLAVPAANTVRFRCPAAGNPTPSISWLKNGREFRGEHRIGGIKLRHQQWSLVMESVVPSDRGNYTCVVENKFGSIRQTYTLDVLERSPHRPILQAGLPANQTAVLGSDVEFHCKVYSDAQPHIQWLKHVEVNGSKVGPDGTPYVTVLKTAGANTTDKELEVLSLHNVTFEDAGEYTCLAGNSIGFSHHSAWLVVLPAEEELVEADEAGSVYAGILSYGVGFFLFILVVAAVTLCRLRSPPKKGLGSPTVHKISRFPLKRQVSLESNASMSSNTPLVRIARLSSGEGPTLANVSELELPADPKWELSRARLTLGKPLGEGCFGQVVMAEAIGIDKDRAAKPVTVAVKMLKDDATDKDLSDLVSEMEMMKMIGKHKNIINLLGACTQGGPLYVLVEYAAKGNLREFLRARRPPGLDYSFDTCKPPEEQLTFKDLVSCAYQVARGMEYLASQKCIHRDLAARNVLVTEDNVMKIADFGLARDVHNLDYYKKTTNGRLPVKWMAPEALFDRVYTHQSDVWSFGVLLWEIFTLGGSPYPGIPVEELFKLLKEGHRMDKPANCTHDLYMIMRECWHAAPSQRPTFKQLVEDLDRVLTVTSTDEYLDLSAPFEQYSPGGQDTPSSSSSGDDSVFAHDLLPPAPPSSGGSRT
FGFR2, sequence (P21802 22-821): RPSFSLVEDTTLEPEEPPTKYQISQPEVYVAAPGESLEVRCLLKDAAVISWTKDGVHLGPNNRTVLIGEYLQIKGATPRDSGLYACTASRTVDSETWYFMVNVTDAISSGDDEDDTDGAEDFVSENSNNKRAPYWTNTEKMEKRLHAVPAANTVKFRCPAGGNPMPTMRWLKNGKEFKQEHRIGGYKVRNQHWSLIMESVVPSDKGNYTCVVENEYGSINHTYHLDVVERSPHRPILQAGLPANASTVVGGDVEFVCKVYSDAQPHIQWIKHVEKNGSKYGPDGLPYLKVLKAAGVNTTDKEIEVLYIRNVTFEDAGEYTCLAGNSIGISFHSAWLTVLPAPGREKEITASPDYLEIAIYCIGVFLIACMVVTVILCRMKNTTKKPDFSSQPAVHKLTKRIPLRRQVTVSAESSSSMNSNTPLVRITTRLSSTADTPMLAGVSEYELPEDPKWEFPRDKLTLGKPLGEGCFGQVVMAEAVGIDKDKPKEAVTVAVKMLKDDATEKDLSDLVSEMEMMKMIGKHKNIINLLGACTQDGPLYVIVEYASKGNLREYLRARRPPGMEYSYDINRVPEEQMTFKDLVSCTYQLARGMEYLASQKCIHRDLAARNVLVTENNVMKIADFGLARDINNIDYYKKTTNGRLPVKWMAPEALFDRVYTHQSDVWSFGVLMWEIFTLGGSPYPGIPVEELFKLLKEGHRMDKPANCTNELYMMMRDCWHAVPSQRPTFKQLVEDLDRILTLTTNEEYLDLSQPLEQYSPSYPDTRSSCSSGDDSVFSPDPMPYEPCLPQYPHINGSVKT

| Compound | IC50 (FGFR4; pre-incubated for 4 hours) | IC50 (FGFR1; [1]) | IC50 (FGFR2; pre-incubated for 4 hours) | FGFR1/FGFR3 IC50 ratio (FGFR3 enzyme; pre-incubated for 4 hours) | FGFR4/FGFR3 IC50 ratio (FGFR3 enzyme; pre-incubated for 4 hours) | IC50 (FGFR3 enzyme; [2]) | IC50 (FGFR4; [3]) | IC50 (FGFR1; [4]) | IC50 (FGFR1; [5]) | IC50 (FGFR2; [3]) | IC50 (FGFR3 enzyme; [6]) | FGFR1/FGFR4 IC50 ratio (FGFR4; [3]) | FGFR2/FGFR4 IC50 ratio (FGFR4; [3]) | FGFR3/FGFR4 IC50 ratio (FGFR4; [3]) | FGFR1/FGFR4 IC50 ratio (FGFR4; pre-incubated for 4 hours) | FGFR2/FGFR4 IC50 ratio (FGFR4; pre-incubated for 4 hours) | FGFR3/FGFR4 IC50 ratio (FGFR4; pre-incubated for 4 hours) | IC50 (FGFR3 enzyme) |
| --- | --- | --- | --- | --- | --- | --- | --- | --- | --- | --- | --- | --- | --- | --- | --- | --- | --- | --- |
| CCN1C(=O)N(c2c(F)c(OC)cc(OC)c2F)Cc2cnc(-c3ccc(C(=O)NCCO)nc3)cc21 [Example 177, 5-(3-(2,6-difluoro-3,5-dimethoxyphenyl)-1-ethyl-2-oxo-1,2,3,4-tetrahydropyrido[4,3-d]pyrimidin-7-yl)-N-(2-hydroxyethyl)picolinamide] | 0.01 to 0.03 µM | 10 to 30 nM | < 0.01 µM | >5 | >10 | < 0.01 µM | – | – | – | – | – | – | – | – | – | – | – | – |
| COc1cc(OC)c(F)c(N2Cc3cnc(-c4cncc(S(=O)(=O)N5CCOCC5)c4)cc3C3(CC3)C2=O)c1F [Example 14, 2′-(2,6-difluoro-3,5-dimethoxyphenyl)-6′-(5-(morpholinosulfonyl)pyridin-3-yl)-1′H-spiro[cyclopropane-1,4′-[2,7]naphthyridin]-3′(2′H)-one] | < 0.01 µM | – | 0.03 to 0.2 µM | >5 | – | 0.03 to 0.2 µM | < 0.01 µM | > 200 nM | > 200 nM | 0.03 to 0.2 µM | 0.01 to 0.03 µM | >25 | >5 | >5 | >50 | >10 | >1 | – |
| COc1cc(OC)c(F)c(N2Cc3cnc(-c4cc(N)ccc4C#N)cc3C3(CC3)C2=O)c1F [Example 3, 4-amino-2-(2′-(2,6-difluoro-3,5-dimethoxyphenyl)-3′-oxo-2′,3′-dihydro-1′H-spiro[cyclopropane-1,4′-[2,7]naphthyridine]-6′-yl)benzonitrile] | 0.01 to 0.03 µM | – | > 0.2 µM | – | – | > 0.2 µM | 0.01 to 0.03 µM | > 200 nM | > 200 nM | > 0.2 µM | > 0.2 µM | >25 | >25 | >25 | >25 | >25 | >10 | – |
| COc1cc(OC)c(F)c(N2Cc3cnc(-c4cnn(C)c4)cc3C3(CC3)C2=O)c1F [Example 186, 2′-(2,6-difluoro-3,5-dimethoxyphenyl)-6′-(1-methyl-1H-pyrazol-4-yl)-1′,2′-dihydro-3′H-spiro[cyclopropane-1,4′-[2,7]naphthyridin]-3′-one] | < 0.01 µM | – | < 0.01 µM | >5 | >5 | < 0.01 µM | < 0.01 µM | < 10 nM | < 10 nM | < 0.01 µM | < 0.01 µM | – | – | – | – | – | – | – |
| COc1cc(OC)c(F)c(N2Cc3cnc(-c4cn(CCC5CCNCC5)nc4C)cc3C3(CC3)C2=O)c1F [Example 165, 2′-(2,6-difluoro-3,5-dimethoxyphenyl)-6′-(3-methyl-1-(2-(piperidin-4-yl)ethyl)-1H-pyrazol-4-yl)-1′H-spiro[cyclopropane-1,4′-[2,7]naphthyridin]-3′(2′H)-one] | 0.01 to 0.03 µM | 10 to 30 nM | < 0.01 µM | >3 | >3 | < 0.01 µM | – | – | – | – | – | – | – | – | – | – | – | – |
| COc1cc(OC)c(F)c(N2Cc3cnc(-c4cnn(C5CCN(S(C)(=O)=O)C5)c4)cc3C3(CC3)C2=O)c1F (centres unmarked) [Example 147, 2′-(2,6-difluoro-3,5-dimethoxyphenyl)-6′-(1-(1-(methylsulfonyl)pyrrolidin-3-yl)-1H-pyrazol-4-yl)-1′H-spiro[cyclopropane-1,4′-[2,7]naphthyridin]-3′(2′H)-one] | < 0.01 µM | 10 to 30 nM | < 0.01 µM | >10 | >3 | < 0.01 µM | – | – | – | – | – | – | – | – | – | – | – | – |
| CNC(=O)c1ccc(-c2cc3c(cn2)CN(c2c(F)c(OC)cc(OC)c2F)C(=O)C32CC2)cc1 [Example 19, 4-(2′-(2,6-difluoro-3,5-dimethoxyphenyl)-3′-oxo-2′,3′-dihydro-1′H-spiro[cyclopropane-1,4′-[2,7]naphthyridine]-6′-yl)-N-methylbenzamide] | < 0.01 µM | 10 to 30 nM | < 0.01 µM | >5 | – | < 0.01 µM | – | – | – | – | – | – | – | – | – | – | – | – |
| COc1cc(OC)c(F)c(N2Cc3cnc(-c4cn(C)nc4C)cc3N(C3CCN(C(C)=O)CC3)C2=O)c1F [Example 43, 1-(1-acetylpiperidin-4-yl)-3-(2,6-difluoro-3,5-dimethoxyphenyl)-7-(1,3-dimethyl-1H-pyrazol-4-yl)-3,4-dihydropyrido[4,3-d]pyrimidin-2(1H)-one] | 0.03 to 0.2 µM | – | 0.03 to 0.2 µM | >10 | >5 | – | – | – | > 200 nM | – | – | – | – | – | – | – | – | 0.01 to 0.03 µM |

Now from value to compound, other results behind:

| IC50 (FGFR4; pre-incubated for 4 hours) | IC50 (FGFR1; [1]) | IC50 (FGFR2; pre-incubated for 4 hours) | FGFR1/FGFR3 IC50 ratio (FGFR3 enzyme; pre-incubated for 4 hours) | FGFR4/FGFR3 IC50 ratio (FGFR3 enzyme; pre-incubated for 4 hours) | IC50 (FGFR3 enzyme; [2]) | IC50 (FGFR4; [3]) | IC50 (FGFR1; [4]) | IC50 (FGFR1; [5]) | IC50 (FGFR2; [3]) | IC50 (FGFR3 enzyme; [6]) | Compound | FGFR1/FGFR4 IC50 ratio (FGFR4; [3]) | FGFR2/FGFR4 IC50 ratio (FGFR4; [3]) | FGFR3/FGFR4 IC50 ratio (FGFR4; [3]) | FGFR1/FGFR4 IC50 ratio (FGFR4; pre-incubated for 4 hours) | FGFR2/FGFR4 IC50 ratio (FGFR4; pre-incubated for 4 hours) | FGFR3/FGFR4 IC50 ratio (FGFR4; pre-incubated for 4 hours) | IC50 (FGFR3 enzyme) |
| --- | --- | --- | --- | --- | --- | --- | --- | --- | --- | --- | --- | --- | --- | --- | --- | --- | --- | --- |
| 0.01 to 0.03 µM | 30 to 200 nM | < 0.01 µM | >5 | >3 | < 0.01 µM | – | – | – | – | – | COC(=O)Nc1ccc(N2C(=O)N(c3c(F)c(OC)cc(OC)c3F)Cc3cnc(-c4cn(C)nc4C)cc32)cc1 [Example 123, Methyl 4-(3-(2,6-difluoro-3,5-dimethoxyphenyl)-7-(1,3-dimethyl-1H-pyrazol-4-yl)-2-oxo-3,4-dihydropyrido[4,3-d]pyrimidin-1(2H)-yl)phenylcarbamate] | – | – | – | – | – | – | – |
| 0.03 to 0.2 µM | 30 to 200 nM | 0.01 to 0.03 µM | >5 | >3 | < 0.01 µM | – | – | – | – | – | COc1cc(OC)c(F)c(N2Cc3cnc(-c4cn(C)nc4C)cc3N(c3cc(F)cc(C#N)c3)C2=O)c1F [Example 78, 3-(3-(2,6-difluoro-3,5-dimethoxyphenyl)-7-(1,3-dimethyl-1H-pyrazol-4-yl)-2-oxo-3,4-dihydropyrido[4,3-d]pyrimidin-1(2H)-yl)-5-fluorobenzonitrile] | – | – | – | – | – | – | – |
| 0.03 to 0.2 µM | 30 to 200 nM | < 0.01 µM | >5 | >5 | < 0.01 µM | – | – | – | – | – | COc1cc(OC)c(F)c(N2Cc3cnc(-c4cn(C)nc4C)cc3N(Cc3cncnc3)C2=O)c1F [Example 84, 3-(2,6-difluoro-3,5-dimethoxyphenyl)-7-(1,3-dimethyl-1H-pyrazol-4-yl)-1-(pyrimidin-5-ylmethyl)-3,4-dihydropyrido[4,3-d]pyrimidin-2(1H)-one] | – | – | – | – | – | – | – |
| 0.01 to 0.03 µM | 10 to 30 nM | < 0.01 µM | >5 | >5 | < 0.01 µM | – | – | – | – | – | CCN1C(=O)N(c2c(F)c(OC)cc(OC)c2F)Cc2cnc(-c3ccc(C(C)(C)C#N)nc3)cc21 [Example 26, 2-(5-(3-(2,6-difluoro-3,5-dimethoxyphenyl)-1-ethyl-2-oxo-1,2,3,4-tetrahydropyrido[4,3-d]pyrimidin-7-yl)pyridin-2-yl)-2-methylpropanenitrile] | – | – | – | – | – | – | – |
| 0.03 to 0.2 µM | 10 to 30 nM | < 0.01 µM | >3 | >5 | < 0.01 µM | – | – | – | – | – | COc1cc(OC)c(F)c(N2Cc3cnc(-c4cn(C)nc4C)cc3N(c3ccccc3F)C2=O)c1F [Example 110, 3-(2,6-difluoro-3,5-dimethoxyphenyl)-7-(1,3-dimethyl-1H-pyrazol-4-yl)-1-(2-fluorophenyl)-3,4-dihydropyrido[4,3-d]pyrimidin-2(1H)-one] | – | – | – | – | – | – | – |
| < 0.01 µM | – | < 0.01 µM | >5 | >10 | < 0.01 µM | – | – | < 10 nM | – | – | COc1cc(OC)c(F)c(N2Cc3cnc(-c4cn(C)nc4C)cc3N(Cc3cccnn3)C2=O)c1F [Example 88, 3-(2,6-difluoro-3,5-dimethoxyphenyl)-7-(1,3-dimethyl-1H-pyrazol-4-yl)-1-(pyridazin-3-ylmethyl)-3,4-dihydropyrido[4,3-d]pyrimidin-2(1H)-one] | – | – | – | – | – | – | – |
| 0.03 to 0.2 µM | 30 to 200 nM | < 0.01 µM | >5 | >10 | < 0.01 µM | – | – | – | – | – | COc1cc(OC)c(F)c(N2Cc3cnc(-c4cn(C)nc4C)cc3N(Cc3ccncn3)C2=O)c1F [Example 65, 3-(2,6-difluoro-3,5-dimethoxyphenyl)-7-(1,3-dimethyl-1H-pyrazol-4-yl)-1-(pyrimidin-4-ylmethyl)-3,4-dihydropyrido[4,3-d]pyrimidin-2(1H)-one] | – | – | – | – | – | – | – |
| 0.03 to 0.2 µM | 30 to 200 nM | < 0.01 µM | >3 | >5 | < 0.01 µM | – | – | – | – | – | COc1cc(OC)c(F)c(N2Cc3cnc(-c4cn(C)nc4C)cc3N(c3ccc(-c4nnc(C)o4)cc3)C2=O)c1F [Example 115, 3-(2,6-difluoro-3,5-dimethoxyphenyl)-7-(1,3-dimethyl-1H-pyrazol-4-yl)-1-(4-(5-methyl-1,3,4-oxadiazol-2-yl)phenyl)-3,4-dihydropyrido[4,3-d]pyrimidin-2(1H)-one] | – | – | – | – | – | – | – |
| 0.03 to 0.2 µM | 30 to 200 nM | 0.01 to 0.03 µM | >5 | >5 | 0.01 to 0.03 µM | – | – | – | – | – | COc1cc(OC)c(F)c(N2Cc3cnc(-c4cn(C)nc4C)cc3N(c3cnccn3)C2=O)c1F [Example 70, 3-(2,6-difluoro-3,5-dimethoxyphenyl)-7-(1,3-dimethyl-1H-pyrazol-4-yl)-1-(pyrazin-2-yl)-3,4-dihydropyrido[4,3-d]pyrimidin-2(1H)-one] | – | – | – | – | – | – | – |
